From patent US8772500B2, “TRPV3 modulators” (AbbVie Inc., priority 2011, dated 2014)

What was measured:
human TRPV3 = target: T1, human TRPV3 (Homo sapiens, UniProt Q8NET8); test: In vitro antagonism of recombinant human TRPV3 activation (FLIPR Tetra calcium assay, 2-APB as agonist); assay type: cell-based; conditions: HEK293 cells stably expressing human TRPV3; 2-APB 80 μM; range class; read-out: IC50 (reported range)
T1 construct: expressed in transfected cells
T1 sequence (Q8NET8 1-790): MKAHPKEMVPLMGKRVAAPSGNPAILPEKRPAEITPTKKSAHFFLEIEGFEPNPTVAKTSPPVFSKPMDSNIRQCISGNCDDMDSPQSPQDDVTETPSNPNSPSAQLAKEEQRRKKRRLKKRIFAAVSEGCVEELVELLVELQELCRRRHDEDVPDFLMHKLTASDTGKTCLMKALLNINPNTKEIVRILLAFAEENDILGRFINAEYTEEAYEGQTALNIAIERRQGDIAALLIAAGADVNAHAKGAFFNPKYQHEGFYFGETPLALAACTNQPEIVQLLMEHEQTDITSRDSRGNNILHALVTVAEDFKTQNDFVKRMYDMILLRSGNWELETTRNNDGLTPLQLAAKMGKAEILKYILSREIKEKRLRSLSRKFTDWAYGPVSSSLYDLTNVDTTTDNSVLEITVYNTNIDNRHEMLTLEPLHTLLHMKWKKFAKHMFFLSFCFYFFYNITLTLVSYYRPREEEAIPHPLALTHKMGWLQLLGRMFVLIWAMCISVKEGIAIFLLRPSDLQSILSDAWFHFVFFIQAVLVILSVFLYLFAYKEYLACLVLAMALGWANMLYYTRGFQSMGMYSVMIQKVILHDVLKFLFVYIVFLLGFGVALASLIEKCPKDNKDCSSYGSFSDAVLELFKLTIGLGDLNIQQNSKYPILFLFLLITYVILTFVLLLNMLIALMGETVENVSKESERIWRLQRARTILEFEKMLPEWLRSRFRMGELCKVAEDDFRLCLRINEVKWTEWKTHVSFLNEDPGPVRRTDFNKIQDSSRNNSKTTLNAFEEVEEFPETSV
Summary of the method: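 HEK293 cells stably expressing human TRPV3, loaded with Calcium-4 dye for 90-120 min; compound added 3 min before 2-APB at 80 μM (its EC80). Fluorescence (max minus min) over 10 min expressed as % of maximal 2-APB response without antagonist; IC50 mostly averaged from n≧2 runs.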

[1] = In vitro human microsomal stability assay; assay type: in vitro ADME; conditions: human, 0.5 h, 0.5 μM, pH 7.4
Summary of the method: (§1)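 Metabolic stability was measured in liver microsomes from Sprague-Dawley rat or from human. Incubations ran at 37 °C with NADPH as cofactor, and NADPH was also added to the time-zero samples.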

[2] = In vitro rat microsomal stability assay; assay type: in vitro ADME, rat (Sprague-Dawley); conditions: Sprague-Dawley, rat, 0.5 h, 0.5 μM, pH 7.4
Summary of the method: as §1

Row | Compound | IC50 (human TRPV3) | HUMAN MICROSOMAL STABILITY (% REMAINING AFTER 30 MINUTES) [1] | RAT MICROSOMAL STABILITY (% REMAINING AFTER 30 MINUTES) [2]
1 | OC(c1ccccn1)C1(c2ccc(OC(F)(F)F)cc2)CCC1 (stereo not drawn) [Example 12, pyridin-2-yl{1-[4-(trifluoromethoxy)phenyl]cyclobutyl}methanol] | 50 to 500 nM | 24% | 11%
2 | OC(c1ccccn1)C1(c2cc(C(F)(F)F)cc(C(F)(F)F)c2)CCC1 (stereo not drawn) [Example 13, {1-[3,5-bis(trifluoromethyl)phenyl]cyclobutyl}(pyridin-2-yl)methanol] | 501 to 1000 nM | 7.4% | 19%
3 | OC(c1ccccn1)C1(c2ccc(F)c(C(F)(F)F)c2)CCC1 (stereo not drawn) [Example 15, {1-[4-fluoro-3-(trifluoromethyl)phenyl]cyclobutyl}(pyridin-2-yl)methanol] | 50 to 500 nM | 5.6% | 1.2%
4 | OC(c1ccccn1)C1(c2ccc(C(F)(F)F)c(F)c2)CCC1 (stereo not drawn) [Example 17] | 1100 to 5000 nM | 21% | 13%
5 | OC(c1ccccn1)C1(c2cccc(Oc3ccccc3)c2)CCC1 (stereo not drawn) [Example 23, [1-(3-phenoxyphenyl)cyclobutyl](pyridin-2-yl)methanol] | 501 to 1000 nM | 0.12% | 0.69%
6 | OC(c1ccccn1)C1(c2ccc(Oc3ccccc3)cc2)CCC1 (stereo not drawn) [Example 24, [1-(4-phenoxyphenyl)cyclobutyl](pyridin-2-yl)methanol] | 1100 to 5000 nM | 20% | 17%
7 | OC(c1ccccn1)C1(c2ccc(Cc3ccccc3)cc2)CCC1 (stereo not drawn) [Example 25, [1-(4-benzylphenyl)cyclobutyl](pyridin-2-yl)methanol] | 1100 to 5000 nM | 21% | 1.3%
8 | O[C@H](c1ccccn1)C1(c2ccc(Cl)c(Cl)c2)CCC1 [Example 26, (S)-[1-(3,4-dichlorophenyl)cyclobutyl](pyridin-2-yl)methanol] | 50 to 500 nM | 6.3% | 1.0%
9 | O[C@H](c1ccccn1)C1(c2ccc(C(F)(F)F)cc2F)CCC1 [Example 27, (S)-{1-[2-fluoro-4-(trifluoromethyl)phenyl]cyclobutyl}(pyridin-2-yl)-methanol] | 1100 to 5000 nM | 13% | 15%
10 | O[C@H](c1ccccn1)C1(c2ccc(C(F)(F)F)cc2)CCC1 [Example 28, (S)-pyridin-2-yl{1-[4-(trifluoromethyl)phenyl]cyclobutyl}methanol] | 50 to 500 nM | 12% | 13%
11 | O[C@H](c1ccccn1)C1(c2ccc(C(F)(F)F)c(F)c2)CCC1 [Example 29, (S)-{1-[3-fluoro-4-(trifluoromethyl)phenyl]cyclobutyl}(pyridin-2-yl)-methanol] | 1100 to 5000 nM | 5.3% | 45%
12 | Cc1cccnc1[C@@H](O)C1(c2ccc(Cl)c(Cl)c2)CCC1 [Example 30, (S)-[1-(3,4-dichlorophenyl)cyclobutyl](3-methylpyridin-2-yl)methanol] | 1100 to 5000 nM | 1.5% | 0.98%
13 | O[C@H](c1ncccn1)C1(c2ccc(Cl)c(Cl)c2)CCC1 [Example 39, (S)-[1-(3,4-dichlorophenyl)cyclobutyl](pyrimidin-2-yl)methanol] | 501 to 1000 nM | 51% | 11%
14 | O[C@@H](c1ncccn1)C1(c2ccc(Cl)c(Cl)c2)CCC1 [Example 40, (R)-[1-(3,4-dichlorophenyl)cyclobutyl](pyrimidin-2-yl)methanol] | 5100 to 20000 nM | 68% | 5.6%
15 | Cc1ccccc1C(C)C1(C(O)c2ccccn2)CCC1 (stereo not drawn) [Example 45, {1-[1-(2-methylphenyl)ethyl]cyclobutyl}(pyridin-2-yl)methanol] | 1100 to 5000 nM | 0.03% | 0.02%
16 | CC(c1ccc(F)cc1)C1(C(O)c2ccccn2)CCC1 (stereo not drawn) [Example 46, {1-[1-(4-fluorophenyl)ethyl]cyclobutyl}(pyridin-2-yl)methanol] | 5100 to 20000 nM | 11% | 0.23%
17 | CC(c1ccc(Cl)cc1)C1(C(O)c2ccccn2)CCC1 (stereo not drawn) [Example 49, {1-[1-(4-chlorophenyl)ethyl]cyclobutyl}(pyridin-2-yl)methanol] | 1100 to 5000 nM | 15% | 0.13%
18 | CC(c1ccccc1Cl)C1(C(O)c2ccccn2)CCC1 (stereo not drawn) [Example 50, {1-[1-(2-chlorophenyl)ethyl]cyclobutyl}(pyridin-2-yl)methanol] | 1100 to 5000 nM | 0.08% | 0.18%
19 | Cc1ccc(CC2(C(O)c3ccccn3)CCC2)cc1 (stereo not drawn) [Example 52, [1-(4-methylbenzyl)cyclobutyl](pyridin-2-yl)methanol] | 1100 to 5000 nM | 1.7% | 0.05%
20 | OC(c1ccccn1)C1(C2CCc3ccccc32)CCC1 (stereo not drawn) [Example 55, [1-(2,3-dihydro-1H-inden-1-yl)cyclobutyl](pyridin-2-yl)methanol] | 5100 to 20000 nM | 1.6% | 0.29%
21 | OC(c1ccccn1)C1(C2CCCc3ccccc32)CCC1 (stereo not drawn) [Example 56, pyridin-2-yl[1-(1,2,3,4-tetrahydronaphthalen-1-yl)cyclobutyl]methanol] | 1100 to 5000 nM | 0.42% | 1.1%
22 | OC(c1ccccn1)C1(C2CCOc3ccccc32)CCC1 (stereo not drawn) [Example 57, [1-(3,4-dihydro-2H-chromen-4-yl)cyclobutyl](pyridin-2-yl)methanol] | 5100 to 20000 nM | 16% | 10%
23 | OC(c1ccccn1)C1(C(c2ccccc2)C(F)(F)F)CCC1 (stereo not drawn) [Example 58, pyridin-2-yl[1-(2,2,2-trifluoro-1-phenylethyl)cyclobutyl]methanol] | 1100 to 5000 nM | 36% | 33%
24 | OC(c1ccccn1)C1(c2ccc(Cl)c(Cl)c2)CCOCC1 (stereo not drawn) [Example 59, [4-(3,4-dichlorophenyl)tetrahydro-2H-pyran-4-yl](pyridin-2-yl)methanol] | 1100 to 5000 nM | 45% | 12%
25 | OC(c1ccccn1)C1(c2cccc(OC(F)(F)F)c2)CCOCC1 (stereo not drawn) [Example 66, pyridin-2-yl{4-[3-(trifluoromethoxy)phenyl]tetrahydro-2H-pyran-4-yl}-methanol] | 1100 to 5000 nM | 31% | 23%
